Results from PMC9505425, “Targeting of the Mitochondrial TET1 Protein by Pyrrolo[3,2-b]pyrrole Chelators” (International Journal of Molecular Sciences, 2022).
“And” between values parts separate entries of the source, which are not always exact repeats. Identical values can stand only once.

Columns and labels:
[1] = tested on: BT-20 cells; test: MTT cytotoxicity assay, BT-20; assay type: cell-based, human
Description: (§1) The effects of the tested compounds 1–6 on HF-P4, U-118 MG, H1299, BT-20, and Caov-3 cell lines were evaluated by the MTT assay during 48 h treatment (Table 2 and Tables S2–S31). In all tested compounds, we recognized a difference in cytotoxicity between healthy cells (HF-P4) and cancer cell lines (BT-20, Caov-3, and H-1299). […] In the case of ovarian cancer, the authors discovered oncogenic and poor prognosis roles of TET1 in epithelial ovarian carcinoma (EOC). TET1 is believed to demethylate the epigenome and activate numerous oncogenic pathways in EOC. The aforementioned study presents a new mechanism where TET1 contributes to tumor development through collaboration with CK2α [21]. The overexpression of the TET1 protein was also found in triple negative breast cancer and was associated with an activation of PI3K/mTOR pathway and decreased overall survival.
The human mammary gland/breast cell line (BT-20), purchased from ATCC (BT-20 (ATCC® HTB-19™), Manassas, VA, USA), was used for the cytotoxicity assay (MTT), and BT-20 cells were cultivated under standard conditions in Eagle’s minimum essential medium (ATCC, Manassas, VA, USA) supplemented with 10% FBS and streptomycin (100 μg/mL) at 37 °C at a 5% CO2 atmosphere.
(§2) For the cytotoxicity assay, we used the following cell lines: human glioblastoma cell line U118-MG, human mammary gland/breast cell line BT-20, human ovary adenocarcinoma cell line Caov-3, and non-small-cell lung carcinoma H-1299. As previously mentioned, these cell lines contain a high level of the TET1 protein, which corresponds to a lower overall survival. In addition to these cell cultures, we used the human dermal fibroblast cell line HF-P4 as a healthy control. Determination of cytotoxicity was performed using the MTT [3-(4,5-dimethylthiazol-2-yl)-2,5-diphenyltetrazolium bromide] colorimetric assay. Viable cells from each cell line were cultured in 96-well plates (VWR, Stříbrná Skalice, Czech Republic) at a density of 1.0 × 10^5 cells per well and allowed to grow for 24 h in 200 μL of recommended medium. After a 1-day incubation, the medium was replaced with solutions of compounds 1–6 at concentration ranges of 0.1–20 μM. Each concentration was measured four times within one test, and the entire test was repeated three times. Tested compounds 1–6 were dissolved in DMSO and then diluted with corresponding medium to a final volume of 200 μL (maximum 1% DMSO). After 48 h exposure, cells were treated with 175 μL of MTT solution (P-LAB, Prague, Czech Republic) for 2 h. In the next step, MTT solution was removed, and 125 μL of DMSO (Penta, Prague, Czech Republic) was added to solubilize dark crystals of formazan formed in intact cells, and absorbance was measured at 570 nm by the enzyme-linked immunoabsorbent assay reader Infinite® 200 PRO (Tecan, Männedorf, Switzerland). The final DMSO concentration was smaller than 1% (v/v). The absorbance of untreated cells was considered 100%, and IC50 values were calculated by the GraphPad Prism 8 software. As a parameter for cytotoxicity, we used a concentration that inhibits 50% of cell growth (IC50).

[2] = tested on: Caov-3 cells; test: MTT cytotoxicity assay, Caov-3; assay type: cell-based, human
Description: as §1
The human ovary adenocarcinoma cell line (Caov-3), purchased from ATCC (Caov-3 (ATCC® HTB-75™), Manassas, VA, USA), was used for the cytotoxicity assay (MTT). Caov-3 cells were cultivated under standard conditions in Dulbecco’s modified Eagle’s medium (ATCC, Manassas, VA, USA) supplemented with 10% FBS and streptomycin (100 μg/mL) at 37 °C at a 5% CO2 atmosphere.
as §2

## Cc1ccc(-n2c(-c3ccc(C(=O)N/N=C/c4cc(F)ccc4O)cc3)cc3c2cc(-c2ccc(C(=O)N/N=C/c4cc(F)ccc4O)cc2)n3-c2ccc(C)cc2)cc1 [Compound 3]
[1]; BT-20, 100 nM, 48 h, repeats, 0.1 µM
  Cell viability %: 73.86% and 70.55%
[1]; BT-20, 500 nM, 48 h, repeats, 0.5 µM
  Cell viability %: 90.62% and 106.8284%
[1]; BT-20, 750 nM, 48 h, repeats, 0.75 µM
  Cell viability %: 90.49% and 101.3318%
[1]; BT-20, 1 uM, 48 h, repeats, 1 µM
  Cell viability %: 95.2857% and 94.7%
[1]; BT-20, 2.5 uM, 48 h, repeats, 2.5 µM
  Cell viability %: 99.34% and 98.89%
[1]; BT-20, 5 uM, 48 h, repeats, 5 µM
  Cell viability %: 91.79% and 101.4304%
[1]; BT-20, 7.5 uM, 48 h, repeats, 7.5 µM
  Cell viability %: 71.93% and 72.16%
[1]; BT-20, 10 uM, 48 h, repeats, 10 µM
  Cell viability %: 60.86% and 57.19%
[1]; BT-20, 15 uM, 48 h, repeats, 15 µM
  Cell viability %: 53.94% and 48.1349%
[1]; BT-20, 20 uM, 48 h, repeats, 20 µM
  Cell viability %: 33.39% and 29.51%
[1]; Homo sapiens, BT-20, 48 h, BT-20, 100 nM, repeats, read-out: Cell viability %
  viability at 0.1 µM: 83.4%
[1]; Homo sapiens, BT-20, 48 h, BT-20, 500 nM, repeats, read-out: Cell viability %
  viability at 0.5 µM: 95.3%
[1]; Homo sapiens, BT-20, 48 h, BT-20, 750 nM, repeats, read-out: Cell viability %
  viability at 0.75 µM: 99.7%
[1]; Homo sapiens, BT-20, 48 h, BT-20, 1 uM, repeats, read-out: Cell viability %
  viability at 1 µM: 104%
[1]; Homo sapiens, BT-20, 48 h, BT-20, 2.5 uM, repeats, read-out: Cell viability %
  viability at 2.5 µM: 99.4%
[1]; Homo sapiens, BT-20, 48 h, BT-20, 5 uM, repeats, read-out: Cell viability %
  viability at 5 µM: 85.1%
[1]; Homo sapiens, BT-20, 48 h, BT-20, 7.5 uM, repeats, read-out: Cell viability %
  viability at 7.5 µM: 73.1%
[1]; Homo sapiens, BT-20, 48 h, BT-20, 10 uM, repeats, read-out: Cell viability %
  viability at 10 µM: 62.9%
[1]; Homo sapiens, BT-20, 48 h, BT-20, 15 uM, repeats, read-out: Cell viability %
  viability at 15 µM: 48.9%
[1]; Homo sapiens, BT-20, 48 h, BT-20, 20 uM, repeats, read-out: Cell viability %
  viability at 20 µM: 41%
[1]; Homo sapiens, BT-20, MTT, 48 h
  IC50: 13.7 µM
[2]; Caov-3, 100 nM, 48 h, repeats, 0.1 µM
  Cell viability %: 80.39% and 71.14%
[2]; Caov-3, 500 nM, 48 h, repeats, 0.5 µM
  Cell viability %: 93.5% and 75.39% and 98.76%
[2]; Caov-3, 750 nM, 48 h, repeats, 0.75 µM
  Cell viability %: 86.6015% and 81.49% and 112.9009%
[2]; Caov-3, 1 uM, 48 h, repeats, 1 µM
  Cell viability %: 86.92% and 97.81%
[2]; Caov-3, 2.5 uM, 48 h, repeats, 2.5 µM
  Cell viability %: 89.39% and 98.69%
[2]; Caov-3, 5 uM, 48 h, repeats, 5 µM
  Cell viability %: 67.61% and 86.52%
[2]; Caov-3, 7.5 uM, 48 h, repeats, 7.5 µM
  Cell viability %: 83.04% and 61.94% and 104.0087%
[2]; Caov-3, 10 uM, 48 h, repeats, 10 µM
  Cell viability %: 67.37% and 81.12%
[2]; Caov-3, 15 uM, 48 h, repeats, 15 µM
  Cell viability %: 57.51% and 62.97%
[2]; Caov-3, 20 uM, 48 h, repeats, 20 µM
  Cell viability %: 34.98% and 37.9%
[2]; Homo sapiens, Caov-3, 48 h, Caov-3, 100 nM, repeats, read-out: Cell viability %
  viability at 0.1 µM: 84.4%
[2]; Homo sapiens, Caov-3, 48 h, Caov-3, 1 uM, repeats, read-out: Cell viability %
  viability at 1 µM: 89.4%
[2]; Homo sapiens, Caov-3, 48 h, Caov-3, 2.5 uM, repeats, read-out: Cell viability %
  viability at 2.5 µM: 85.3%
[2]; Homo sapiens, Caov-3, 48 h, Caov-3, 5 uM, repeats, read-out: Cell viability %
  viability at 5 µM: 70.6%
[2]; Homo sapiens, Caov-3, 48 h, Caov-3, 10 uM, repeats, read-out: Cell viability %
  viability at 10 µM: 65.4%
[2]; Homo sapiens, Caov-3, 48 h, Caov-3, 15 uM, repeats, read-out: Cell viability %
  viability at 15 µM: 59%
[2]; Homo sapiens, Caov-3, 48 h, Caov-3, 20 uM, repeats, read-out: Cell viability %
  viability at 20 µM: 35.5%
[2]; Homo sapiens, Caov-3, MTT, 48 h
  IC50: 17.8 µM
